From PMC11397358, “Cytotoxic Activity of Novel GnRH Analogs Conjugated with Mitoxantrone in Ovarian Cancer Cells” (Molecules, 2024)

Test system: SKOV-3 cells
Experiment: Confocal microscopy of intracellular mitoxantrone fluorescence, quantified with Image J
Format: cell-based, human
Conditions: 6 h; for localization of mitoxantrone fluorescence, in words: 1 μM, Hoechst nuclear stain; for effect of cisplatin on intracellular accumulation of mitoxantrone, in words: 1 μΜ, cisplatin 30 μg/mL for 1 h before treatment
Description: To determine the accumulation of mitoxantrone within the SKOV-3 cells, we used confocal microscopy, exploiting the ability of mitoxantrone to fluoresce. Specifically, the excitation maxima of mitoxantrone are at 610 and 660 nm, whereas its emission maximum is at 685 nm. To stain the nuclei, we used the Hoechst dye. […] In contrast, the fluorescence signal was absent in untreated cells.
(§1) Figure 9 Confocal microscopy images of SKOV-3 cells treated with or without the GnRH-mitoxantrone conjugates, Con-3, Con-7 or mitoxantrone at a concentration of 1 μΜ for 6 h at 37 °C. At the end of the incubation, the cell nuclei were stained with the DNA-staining Hoechst 33342 dye and confocal fluorescent images were obtained after sequential excitation at 350 nm (for the Hoechst dye) and 638 nm (for the mitoxantrone). The emission filters of 461 nm and 650 nm–700 nm were used for collecting blue (Hoechst dye) and red (mitoxantrone) signals in separate channels. The left images show the nuclei staining with Hoechst dye (blue), whereas the middle ones depict the mitoxantrone fluorescence (red). The right images were created by merging the […] and middle ones and depict the localization of mitoxantrone (red) in both the cytoplasm and the nuclei. The figures are shown from a representative experiment performed three times with similar results.
We hypothesized that the GnRH-conjugated mitoxantrone of Con-3 and Con-7 entered the SKOV-3 cells after the reduction in the disulfide bond linking the GnRH analogs with mitoxantrone and subsequent release of the latter from the conjugates. This chemical reaction could be accomplished by the thioredoxin system, which is overexpressed in cancer cells and reduces the disulfide bonds of proteins and peptides. To verify this hypothesis, we incubated the SKOV-3 cells with cisplatin at a concentration of 30 μg/mL for 1 h before treating them with Con-3 or Con-7 conjugates. Cisplatin is a potent inhibitor of the thioredoxin system.
as §1, with “Figure 10” for “Figure 9”, “with” for “with or without”, “conjugates, Con-3 or” for “conjugates, Con-3,”, “Con-7 (1” for “Con-7 or mitoxantrone at a concentration of 1”, “6 h)” for “6 h”, “37 °C, in the presence or absence of cisplatin. Cisplatin was added to the cells 1 h before their incubation with the GnRH-mitoxantrone conjugates.” for “37 °C.”
Figure 11 Confocal microscopy images of SKOV-3 cells treated with mitoxantrone (1 μΜ for 6 h) at 37 °C, in the presence or absence of cisplatin. Cisplatin was added to the cells 1 h before their incubation with mitoxantrone. At the end of the incubation, the cell nuclei were stained with the DNA-staining Hoechst 33342 dye and confocal fluorescent images were obtained after sequential excitation at 350 nm (for the Hoechst dye) and 638 nm (for the mitoxantrone). The emission filters of 461 nm and 650 nm–700 nm were used for collecting blue (Hoechst dye) and red (mitoxantrone) signals in separate channels. The left images show the nuclei staining with Hoechst dye (blue), whereas the middle ones depict the mitoxantrone fluorescence (red). […]

SMILES | localization of mitoxantrone fluorescence, in words | effect of cisplatin on intracellular accumulation of mitoxantrone, in words
CCNC(=O)[C@@H]1CCCN1C(=O)[C@H](CCCNC(=N)N)NC(=O)[C@H](CC(C)C)NC(=O)[C@@H](CSSCCC(=O)OCCNCCNc1ccc(NCCNCCO)c2c1C(=O)c1c(O)ccc(O)c1C2=O)NC(=O)[C@H](Cc1ccc(O)cc1)NC(=O)[C@H](CO)NC(=O)[C@H](Cc1c[nH]c2ccccc12)NC(=O)[C@H](Cc1c[nH]cn1)NC(=O)[C@@H]1CCC(=O)N1 [Con-3] | detected in both the cytoplasm and nucleus | abolished the accumulation of mitoxantrone
O=C1c2c(O)ccc(O)c2C(=O)c2c(NCCNCCO)ccc(NCCNCCO)c21 [mitoxantrone] | detected in both the cytoplasm and nucleus | did not affect the intracellular accumulation
CCNC(=O)[C@@H]1CCCN1C(=O)[C@H](CCCNC(=N)N)NC(=O)[C@H](CC(C)C)NC(=O)[C@@H](CCCCNC(=O)CCCCCNC(=O)CCSSCC(=O)OCCNCCNc1ccc(NCCNCCO)c2c1C(=O)c1c(O)ccc(O)c1C2=O)NC(=O)[C@H](Cc1ccc(O)cc1)NC(=O)[C@H](CO)NC(=O)[C@H](Cc1c[nH]c2ccccc12)NC(=O)[C@H](Cc1c[nH]cn1)NC(=O)[C@@H]1CCC(=O)N1 [Con-7] | detected in both the cytoplasm and nucleus | abolished the accumulation of mitoxantrone
